Assay results published in article PMC9180170, “Amentoflavone Promotes Cellular Uptake and Degradation of Amyloid-Beta in Neuronal Cells” (International Journal of Molecular Sciences, 2022).

Assays:
immortalized astrocytes = test: Aβ uptake assay in immortalized astrocytes; format: cell-based; details: immortalized mouse astrocytes, 2 or 10 μM AMF, 200 nM TAMRA-Aβ1-40, 3 h
Protocol: (§1) Figure 7 Amentoflavone promotes the cellular uptake of Aβ peptide in glial cells. Mouse BV2 microglial cells (A) and immortalized astrocytes (B) were incubated with or without 2 or 10 μM amentoflavone (AMF) plus 200 nM TAMRA Aβ1-40 for three hours at 37 °C. The cells were harvested, and the fluorescent intensity of TAMRA was determined by fluorometry.
(§2) N2a cells were grown in Dulbecco’s Modified Eagle Medium (DMEM) supplemented with 10% fetal bovine serum, 100 U/mL penicillin and 100 µg/mL streptomycin at 37 °C in a humidified CO2 incubator (Thermo Fisher Scientific, Waltham, MA, USA). Cells at less than five passages were used in the experiments. The immortalized BV-2 murine microglial cell line was grown and maintained in DMEM containing antibiotics and 2% fetal bovine serum. The immortalized mouse astrocyte cell line was kindly gifted by David Holtzman at Washington University in St. Louis and maintained in DMEM containing antibiotics and 10% fetal bovine serum.
(§3) The Aβ uptake assay was performed as described, with modifications. […] The fluorescent intensity was measured at λEX = 490 and λEM = 520 for FAM, and λEX = 545 and λEM = 575 for TAMRA using a Biotek Synergy HT plate reader (Winooski, VT). Protein concentrations of the cell lysates were determined using a BCA assay kit (Sigma-Aldrich, St. Louis, MO, USA). […] Cellular uptake of Aβ was expressed as pmole/mg protein.

N2a cells [1] = test: Aβ uptake assay with fluorescently labeled Aβ in N2a cells; format: cell-based, mouse; details: 200 nM TAMRA-Aβ1-40, 10 μM AMF, one, three and six hours, TAMRA fluorescence liberated by trypsin digestion
N2a cells [2] = test: Immunoblotting of internalized Aβ1-40 in cell lysates; format: cell-based, mouse; details: for effect on intracellular levels of full-length (~4-kDa) monomeric Aβ1-40: N2a cells, unlabeled Aβ1-40, 3 h, 10 μM AMF or leupeptin 100 μg/mL, SDS-PAGE and immunoblotting, normalized to α-tubulin
Protocol: To examine the integrity of Aβ1-40 taken up into neuronal cells, N2a cells were treated with the lysosomal enzyme inhibitor, leupeptin (100 μg/mL), unlabeled Aβ1-40 peptide in the presence or absence of AMF and for 3 h, and cell lysates were subjected to SDS-PAGE followed by immunoblotting with an anti-Aβ1-40 antibody (Figure 4A,B). We observed that the intracellular levels of the full-length (~4-kDa), monomeric Aβ1-40 was increased in the presence of AMF (Figure 4A,B). […] The internalized Aβ1-40 was almost completely degraded within 3 h when N2a cells were incubated with Aβ1-40 for 3 h followed by incubation in the Aβ1-40-free culture medium (washout) for an additional 3 h (Figure 4A,B).
An equal amount of protein samples (5 µg/lane) was separated on a 4–20% gradient tris-tricine gel (Bio-Rad, Hercules, CA, USA) per our published protocol. The gel was transferred to a nitrocellulose membrane (Bio-Rad) at 4 °C for 3 h. Blots were blocked with PBS containing 5% dry milk for 1 h and incubated in PBS solution containing an anti-Aβ antibody HJ2 (1:2000 dilution) or anti-α-tubulin antibody (1:5000 dilution, Sigma-Aldrich). After washing, blots were incubated with goat anti-mouse IgG conjugated with horseradish peroxidase (Bio-Rad, Hercules, CA, USA). The signal was visualized using the HRP chemiluminescent kit (ThermoFisher Scientific, Waltham, MA, USA), and photographic images were taken using a Syngene gel imaging system (Frederick, MD, USA).

N2a cells [3] = test: Lactate dehydrogenase (LDH) activity assay for cytotoxicity; format: cell-based, mouse; details: 24 h
Protocol: The cytotoxicity of Aβ species in N2a cells was assessed using an LDH activity assay kit according to the manufacturer’s protocol (Sigma-Aldrich, St. Louis, MO, USA). Briefly, the Aβ uptake assay was performed as described above using FAM-Aβ1-40 or FAM-Aβ1-42. Twenty-four hours later, the incubation medium was transferred to a microcentrifuge tube and spun at 10,000× g for 5 min to remove cell debris. Triplicate samples of the assay medium were added with an equal volume of LDH master reaction mixture (50 µL/well) to each well of a 96-well plate. The optical density was measured at 37 °C for 30 min at a 5-min interval at a wavelength of 450 nm using a plate reader (Biotek, Winooski, VT, USA).

N2a cells [4] = test: Aβ uptake assay with fluorescently labeled Aβ in N2a cells; format: cell-based, mouse; details: for increase in Aβ1-40 uptake: fluorometry; for effect on cellular uptake of TAMRA-Aβ1-40 (in words): 200 nM TAMRA-Aβ1-40, various concentrations of compound
Protocol: Fluorescent conjugated Aβ peptides were ≥95% in purity as determined by the HPLC method per the vendor (AnaSpec; Fremont, CA, USA). These peptides were dissolved in dimethyl sulfoxide to make 100 μM stock solutions, aliquoted, and stored at −80 °C until use. The fluorescent intensity and protein concentration of each peptide was determined as described below to calculate their specific activities (fluorescent intensity per mg of the conjugated peptide).
(§4) The Aβ uptake assay was performed as described, with modifications. N2a cells were seeded in a 24-well culture plate (2 × 10^5 cells/well) the day prior to the experiments. The next day (cell density at near confluency), cells were rinsed twice with warmed (37 °C) DMEM and incubated in DMEM containing 0.1% bovine serum albumin, 200 nM fluorescently labeled Aβ in the presence or absence of various concentrations of test compounds in a final volume of 200 µL. Cells were then incubated at 37 °C for three hours in the humidified CO2 incubator. The culture plate was placed on ice and the reaction medium was collected in a 1.5-mL microcentrifuge tube. Cells were rinsed twice with phosphate-buffered saline (PBS) containing 137 mM NaCl, 2.7 mM KCl, 10 mM Na2HPO4, and 1.8 mM KH2PO4 (pH: 7.4). To cleave cell surface-bound Aβ and extracellular matrix proteins, cells were treated with 0.05% trypsin in 200 µL PBS at room temperature on an orbital shaker for 5 min. Detached cells were transferred to a microcentrifuge tube and centrifuged at 5000× g for 5 min using a bench-top centrifuge (Thermo Fisher Scientific, Waltham, MA, USA). The supernatant and cell pellet were separated and kept at −80 °C until analysis. Cells were lysed in a buffer containing 20 mM HEPES (pH 7.4), 7.5 mM MgCl2, 1% sodium dodecyl sulfate, 1% Triton X-100, and Complete protease inhibitor cocktail (Sigma-Aldrich, St. Louis, MO, USA). The cell lysate was centrifuged at 10,000× g at 4 °C for 10 min. The fluorescent intensity was measured at λEX = 490 and λEM = 520 for FAM, and λEX = 545 and λEM = 575 for TAMRA using a Biotek Synergy HT plate reader (Winooski, VT). Protein concentrations of the cell lysates were determined using a BCA assay kit (Sigma-Aldrich, St. Louis, MO, USA). The fluorescent intensity of each sample was used to calculate an amount of Aβ in pmole and normalized to protein content. Cellular uptake of Aβ was expressed as pmole/mg protein.

BV2 microglial cells = test: Aβ uptake assay in BV2 microglia; format: cell-based, mouse; details: 200 nM TAMRA-Aβ1-40, 3 h, 37 °C, three independent experiments
Protocol: as §1, §2, §3

N2a cells [5] = test: Aβ uptake assay with pharmacologic inhibitors of endocytosis; format: cell-based, mouse; details: for effect on TAMRA-Aβ1-40 uptake with or without AMF (in words): in the presence or absence of 10 μM AMF, heparin 20 U/mL, cytochalasin D 0.4 or 2 μg/mL
Protocol: as §4
To examine the role of receptor-mediated endocytosis on AMF-induced promotion of Aβ1-40 uptake, we performed the Aβ uptake assay utilizing pharmacologic inhibitors of endocytosis. […] Thirty minutes later, cells were subjected to the Aβ uptake assay with or without 10 μM AMF as described above.

O=c1cc(-c2ccc(O)c(-c3c(O)cc(O)c4c(=O)cc(-c5ccc(O)cc5)oc34)c2)oc2cc(O)cc(O)c12 [AMF, amentoflavone]
effect on cellular uptake of TAMRA-Aβ1-40 in astrocytes (in words) (immortalized astrocytes): significantly increased to a similar extent
effect on TAMRA-Aβ1-40 binding to cell membrane (N2a cells [1]): significantly increased
effect on intracellular levels of full-length (~4-kDa) monomeric Aβ1-40 (N2a cells [2]): increased
effect on FAM-Aβ1-42-induced LDH release (N2a cells [3]; 200 nM FAM-Aβ1-42, co-treatment with 1, 3 and 10 μM AMF): significantly inhibited
effect on intracellular accumulation of FAM-Aβ1-40 (N2a cells [4]; 200 nM FAM-Aβ1-40, various concentrations of AMF, 3 h): increased
cellular uptake of FAM-Aβ1-42 with AMF (N2a cells [4]; 200 nM FAM-Aβ1-42 plus 10 μM AMF, 3 h, mean ± S.E.M. (n = 4)): 7.52 ± 0.50 pmole/mg protein
effect on internalization of the inverted peptide FAM-Aβ42-1 (N2a cells [4]; 200 nM FAM-Aβ42-1, 10 μM AMF, 3 h): no effect
increase in Aβ1-40 uptake (N2a cells [4]; 200 nM TAMRA-Aβ1-40, 1 μM compound, 3 h, 37 °C, mean ± S.E.M. (n = 4)): 1.48 ± 0.05 fold
increase in Aβ1-40 uptake (N2a cells [4]; 200 nM TAMRA-Aβ1-40, 3 μM compound, 3 h, 37 °C, mean ± S.E.M. (n = 4)): 2.48 ± 0.18 fold
increase in Aβ1-40 uptake (N2a cells [4]; 200 nM TAMRA-Aβ1-40, 10 μM compound, 3 h, 37 °C, mean ± S.E.M. (n = 4)): 3.64 ± 1.12 fold
effect on cellular uptake of TAMRA-Aβ1-40 (in words) (N2a cells [4]; 3 h): most potent activity
concentration of TAMRA-Aβ1-40 in the culture medium with AMF (N2a cells [4]; 200 nM TAMRA-Aβ1-40 plus 10 μM AMF, after 3 h, mean ± S.E.M. (n = 4)): 170 ± 1.6 nM
increase in intracellular levels of TAMRA-Aβ1-40 (BV2 microglial cells; 2 μM AMF): 2.2 fold
increase in intracellular levels of TAMRA-Aβ1-40 (BV2 microglial cells; 10 μM AMF): 3.0 fold
TAMRA-Aβ1-40 uptake with AMF, no inhibitor (N2a cells [5]; 10 μM AMF, 200 nM TAMRA-Aβ1-40, 3 h, mean ± S.E.M., three independent experiments): 3.01 ± 0.22 pmole/mg protein

O=C(O[C@@H]1Cc2c(O)cc(O)cc2O[C@@H]1c1cc(O)c(O)c(O)c1)c1cc(O)c(O)c(O)c1 [EGCG, (-)-epigallocatechin gallate, reference compound]
effect on cellular uptake of TAMRA-Aβ1-40 (in words) (N2a cells [4]; 3 h): little to no effect

O=c1cc(-c2ccc(O)cc2)oc2cc(O)cc(O)c12 [apigenin, reference compound]
effect on cellular uptake of TAMRA-Aβ1-40 (in words) (N2a cells [4]; 3 h): little to no effect

C=C1[C@@H](C)[C@H]2[C@H](Cc3ccccc3)NC(=O)[C@]23[C@H](OC(C)=O)/C=C/[C@@](C)(O)C(=O)[C@@H](C)C/C=C/[C@H]3[C@@H]1O [cytochalasin D]
effect on TAMRA-Aβ1-40 uptake with or without AMF (in words) (N2a cells [5]; 200 nM TAMRA-Aβ1-40, 3 h): not blocked

CC(=O)N[C@@H](CC(C)C)C(=O)N[C@@H](CC(C)C)C(=O)N[C@H](C=O)CCCNC(=N)N [leupeptin, reference compound]
effect on intracellular levels of full-length (~4-kDa) monomeric Aβ1-40 (N2a cells [2]): significantly increased
effect on AMF-induced promotion of Aβ1-40 uptake (N2a cells [4]; TAMRA-Aβ1-40, leupeptin plus 10 μM AMF, peptide remaining in the culture medium): did not influence

O=c1c(O)c(-c2ccc(O)c(O)c2)oc2cc(O)cc(O)c12 [quercetin, reference compound]
effect on cellular uptake of TAMRA-Aβ1-40 (in words) (N2a cells [4]; 3 h): little to no effect

ApoE particles: astrocyte-secreted apolipoprotein E particles, inhibitor of LRP-1-mediated endocytosis
inhibition of AMF-induced TAMRA-Aβ1-40 uptake (N2a cells [5]; 200 nM ApoE particles plus 10 μM AMF, 3 h): ~ 30%
decrease of cellular uptake of TAMRA-Aβ1-40 (N2a cells [5]; 200 nM ApoE particles, no AMF, 3 h): ~ 75%

Aβ1-40: unlabeled human Aβ1-40 peptide
time to almost complete degradation of internalized Aβ1-40 (N2a cells [2]; N2a cells incubated with Aβ1-40 for 3 h, then Aβ1-40-free culture medium (washout), immunoblotting): ≤ 3 h

FAM-Aβ1-40: 5-carboxyfluorescein-labeled Aβ1-40 [reference compound]
cytotoxicity by LDH release (in words) (N2a cells [3]; 200 nM peptide, in the absence or presence of AMF): did not cause cell death

FAM-Aβ1-42: FAM-labeled Aβ1-42 [reference compound]
cellular uptake of labeled peptide without AMF (N2a cells [4]; 200 nM peptide, DMEM with 0.1% BSA, 3 h, 37 °C, fluorometry of cell lysate after trypsin, mean ± S.E.M. (n = 4)): 3.34 ± 0.84 pmole/mg protein

TAMRA-Aβ1-40: Aβ1-40 conjugated with a fluorophore 5-carboxytetramethylrhodamine [reference compound]
concentration of TAMRA-Aβ1-40 in the culture medium without AMF (N2a cells [4]; 200 nM TAMRA-Aβ1-40 alone (vehicle), after 3 h, mean ± S.E.M. (n = 4)): 189 ± 0.6 nM

fucoidan
effect on TAMRA-Aβ1-40 uptake without AMF (in words) (N2a cells [5]; 200 nM TAMRA-Aβ1-40, 3 h, no AMF): no effect
TAMRA-Aβ1-40 uptake with inhibitor in the presence of AMF (N2a cells [5]; 100 μM fucoidan (30 min pretreatment) plus 10 μM AMF, 200 nM TAMRA-Aβ1-40, 3 h, mean ± S.E.M., three independent experiments): 1.98 ± 0.17 pmole/mg protein

heparin
effect on TAMRA-Aβ1-40 uptake with or without AMF (in words) (N2a cells [5]; 200 nM TAMRA-Aβ1-40, 3 h): in part attenuated
